Measured values reported in ChEMBL document CHEMBL1138106, “The discovery of a potent and selective lethal factor inhibitor for adjunct therapy of anthrax infection” (Bioorg Med Chem Lett, 2006).

Tests used:
[1] = target: T1, Lethal factor (Bacillus anthracis, UniProt P15917)
T1 sequence (P15917 whole entry): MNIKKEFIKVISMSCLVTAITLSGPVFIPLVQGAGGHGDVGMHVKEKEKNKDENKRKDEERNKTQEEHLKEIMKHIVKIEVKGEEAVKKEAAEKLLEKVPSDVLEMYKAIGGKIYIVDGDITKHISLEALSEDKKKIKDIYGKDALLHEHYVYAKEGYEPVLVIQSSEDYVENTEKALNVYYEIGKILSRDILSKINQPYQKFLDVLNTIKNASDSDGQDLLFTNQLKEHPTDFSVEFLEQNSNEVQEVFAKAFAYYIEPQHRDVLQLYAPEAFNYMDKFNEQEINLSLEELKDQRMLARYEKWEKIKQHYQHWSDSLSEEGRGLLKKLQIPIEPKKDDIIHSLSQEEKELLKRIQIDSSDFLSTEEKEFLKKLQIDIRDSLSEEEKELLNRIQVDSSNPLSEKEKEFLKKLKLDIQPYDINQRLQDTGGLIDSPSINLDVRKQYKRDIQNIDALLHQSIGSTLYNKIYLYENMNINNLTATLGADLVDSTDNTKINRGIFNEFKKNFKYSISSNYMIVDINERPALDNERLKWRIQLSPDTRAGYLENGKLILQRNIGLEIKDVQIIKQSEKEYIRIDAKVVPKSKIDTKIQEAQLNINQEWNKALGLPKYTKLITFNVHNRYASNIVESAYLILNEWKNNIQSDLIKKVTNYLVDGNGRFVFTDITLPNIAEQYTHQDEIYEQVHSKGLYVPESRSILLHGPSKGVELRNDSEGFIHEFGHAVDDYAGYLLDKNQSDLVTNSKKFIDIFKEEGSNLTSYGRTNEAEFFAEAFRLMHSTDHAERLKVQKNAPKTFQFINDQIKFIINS

[2] = target: T1, Lethal factor; experiment: Inhibition of LF; conditions: read-out: IC50
[3] = target: Angiotensin-converting enzyme (Homo sapiens) (UniProt P12821); experiment: Inhibition of ACE at 10 uM
Angiotensin-converting enzyme (Homo sapiens), sequence (P12821 whole entry): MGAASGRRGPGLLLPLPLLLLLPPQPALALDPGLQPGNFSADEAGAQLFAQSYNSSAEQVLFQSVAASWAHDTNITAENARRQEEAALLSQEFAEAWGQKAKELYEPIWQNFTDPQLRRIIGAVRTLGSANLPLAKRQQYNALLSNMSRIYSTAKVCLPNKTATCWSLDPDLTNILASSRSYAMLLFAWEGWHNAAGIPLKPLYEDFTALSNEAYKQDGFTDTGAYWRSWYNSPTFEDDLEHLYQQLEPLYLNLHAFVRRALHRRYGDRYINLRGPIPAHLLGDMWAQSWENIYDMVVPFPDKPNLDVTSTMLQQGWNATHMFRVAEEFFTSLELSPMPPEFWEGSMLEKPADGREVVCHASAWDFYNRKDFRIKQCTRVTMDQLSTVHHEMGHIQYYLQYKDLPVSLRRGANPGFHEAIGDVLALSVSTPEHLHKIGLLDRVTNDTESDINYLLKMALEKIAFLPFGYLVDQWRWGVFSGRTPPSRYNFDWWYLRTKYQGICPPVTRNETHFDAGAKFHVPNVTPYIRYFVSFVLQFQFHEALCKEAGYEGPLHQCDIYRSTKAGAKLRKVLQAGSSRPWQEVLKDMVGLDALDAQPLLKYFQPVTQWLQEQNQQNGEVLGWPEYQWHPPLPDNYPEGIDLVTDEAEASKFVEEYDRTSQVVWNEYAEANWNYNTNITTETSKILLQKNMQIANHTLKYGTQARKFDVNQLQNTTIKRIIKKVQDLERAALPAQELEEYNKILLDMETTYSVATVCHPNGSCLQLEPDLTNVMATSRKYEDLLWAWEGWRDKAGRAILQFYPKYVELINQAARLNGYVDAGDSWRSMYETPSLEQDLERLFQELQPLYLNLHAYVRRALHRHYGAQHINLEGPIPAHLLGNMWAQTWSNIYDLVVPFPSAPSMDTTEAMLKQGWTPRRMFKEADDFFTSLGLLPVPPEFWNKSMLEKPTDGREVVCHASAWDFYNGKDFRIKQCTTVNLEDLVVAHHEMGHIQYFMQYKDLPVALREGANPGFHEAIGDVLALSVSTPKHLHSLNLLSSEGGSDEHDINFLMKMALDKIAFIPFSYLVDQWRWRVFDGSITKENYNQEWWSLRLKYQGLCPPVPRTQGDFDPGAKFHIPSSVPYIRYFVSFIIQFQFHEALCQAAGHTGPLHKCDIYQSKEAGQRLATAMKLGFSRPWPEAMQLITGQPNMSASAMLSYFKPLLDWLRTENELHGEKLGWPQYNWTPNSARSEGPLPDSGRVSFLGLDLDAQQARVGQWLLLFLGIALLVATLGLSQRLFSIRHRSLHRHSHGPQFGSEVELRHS

[4] = target: T2, Endothelin-converting enzyme 1 (Homo sapiens) (UniProt P42892); experiment: Inhibition of ECE at 10 uM
T2 sequence (whole entry): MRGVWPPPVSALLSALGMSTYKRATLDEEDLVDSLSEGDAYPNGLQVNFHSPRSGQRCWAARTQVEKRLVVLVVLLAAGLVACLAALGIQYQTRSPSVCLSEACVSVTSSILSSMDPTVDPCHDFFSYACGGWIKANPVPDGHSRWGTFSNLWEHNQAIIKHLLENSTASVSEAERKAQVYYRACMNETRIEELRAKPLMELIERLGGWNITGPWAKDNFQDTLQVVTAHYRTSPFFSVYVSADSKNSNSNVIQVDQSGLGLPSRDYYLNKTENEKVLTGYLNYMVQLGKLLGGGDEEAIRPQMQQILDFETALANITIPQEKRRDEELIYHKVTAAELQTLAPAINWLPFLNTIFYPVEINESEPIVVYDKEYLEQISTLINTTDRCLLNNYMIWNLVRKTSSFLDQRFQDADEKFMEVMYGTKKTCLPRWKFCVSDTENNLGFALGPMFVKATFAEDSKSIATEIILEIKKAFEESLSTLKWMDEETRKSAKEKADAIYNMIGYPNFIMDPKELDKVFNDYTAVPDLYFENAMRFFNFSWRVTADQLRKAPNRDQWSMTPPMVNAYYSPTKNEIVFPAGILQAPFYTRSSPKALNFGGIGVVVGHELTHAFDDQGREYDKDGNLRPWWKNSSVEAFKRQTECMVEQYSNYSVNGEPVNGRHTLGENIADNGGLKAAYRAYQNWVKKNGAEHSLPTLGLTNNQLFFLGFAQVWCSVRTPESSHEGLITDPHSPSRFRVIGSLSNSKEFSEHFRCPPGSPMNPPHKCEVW

[5] = target: Disintegrin and metalloproteinase domain-containing protein 17 (Homo sapiens, UniProt P78536); experiment: Inhibition of TACE
Disintegrin and metalloproteinase domain-containing protein 17, sequence (P78536 whole entry, the tested form may be a part): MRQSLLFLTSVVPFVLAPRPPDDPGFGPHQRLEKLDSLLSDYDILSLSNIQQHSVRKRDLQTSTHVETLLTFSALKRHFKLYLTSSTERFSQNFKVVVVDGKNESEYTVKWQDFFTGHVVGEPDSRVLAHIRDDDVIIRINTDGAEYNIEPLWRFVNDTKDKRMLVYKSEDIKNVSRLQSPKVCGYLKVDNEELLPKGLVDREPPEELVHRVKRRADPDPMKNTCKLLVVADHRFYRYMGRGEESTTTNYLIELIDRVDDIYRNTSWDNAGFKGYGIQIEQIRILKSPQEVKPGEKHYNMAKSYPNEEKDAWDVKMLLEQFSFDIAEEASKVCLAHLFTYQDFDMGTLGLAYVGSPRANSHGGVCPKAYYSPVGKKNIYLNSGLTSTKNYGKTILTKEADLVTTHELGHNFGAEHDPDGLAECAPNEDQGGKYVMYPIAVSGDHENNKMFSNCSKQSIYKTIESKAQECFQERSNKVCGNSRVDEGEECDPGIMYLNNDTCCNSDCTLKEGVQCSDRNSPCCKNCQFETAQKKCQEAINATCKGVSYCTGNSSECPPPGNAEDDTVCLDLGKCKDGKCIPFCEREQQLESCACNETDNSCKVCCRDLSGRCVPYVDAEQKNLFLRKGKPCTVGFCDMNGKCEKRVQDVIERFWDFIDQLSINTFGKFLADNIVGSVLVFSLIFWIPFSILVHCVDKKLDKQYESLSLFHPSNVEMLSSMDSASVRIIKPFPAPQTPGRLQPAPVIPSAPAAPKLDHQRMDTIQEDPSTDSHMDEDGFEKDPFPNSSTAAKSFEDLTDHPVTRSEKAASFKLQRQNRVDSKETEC

[6] = target: Matrix metalloproteinase-9 (Homo sapiens, UniProt P14780); experiment: Inhibition of MMP9
Matrix metalloproteinase-9, sequence (P14780 whole entry): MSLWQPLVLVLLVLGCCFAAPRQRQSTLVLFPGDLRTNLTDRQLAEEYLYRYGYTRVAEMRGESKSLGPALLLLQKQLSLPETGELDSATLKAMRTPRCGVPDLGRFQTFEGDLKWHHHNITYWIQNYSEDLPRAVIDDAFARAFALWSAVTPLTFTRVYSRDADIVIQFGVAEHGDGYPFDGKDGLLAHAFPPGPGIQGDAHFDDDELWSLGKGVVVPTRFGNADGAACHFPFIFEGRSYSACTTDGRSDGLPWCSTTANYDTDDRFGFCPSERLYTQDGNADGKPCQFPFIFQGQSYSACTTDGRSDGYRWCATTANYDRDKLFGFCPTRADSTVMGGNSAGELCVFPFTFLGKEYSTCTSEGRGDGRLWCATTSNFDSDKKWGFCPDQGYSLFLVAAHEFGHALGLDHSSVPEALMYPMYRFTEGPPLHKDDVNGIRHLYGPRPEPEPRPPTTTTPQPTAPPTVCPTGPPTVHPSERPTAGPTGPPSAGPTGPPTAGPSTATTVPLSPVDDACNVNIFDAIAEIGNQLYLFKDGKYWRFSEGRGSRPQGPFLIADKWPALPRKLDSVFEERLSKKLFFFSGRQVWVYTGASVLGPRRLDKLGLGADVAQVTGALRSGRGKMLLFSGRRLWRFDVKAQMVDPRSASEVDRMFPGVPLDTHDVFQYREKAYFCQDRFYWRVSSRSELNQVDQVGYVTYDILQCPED

[7] = target: Matrix metalloproteinase-14 (Homo sapiens, UniProt P50281); experiment: Inhibition of MMP14
[8] = Volume of distribution in BALB/c mice at 10 mg/kg, iv; assay type: ADME, organism-based; design: dose 10 mg/kg, route intravenous; conditions: mouse, in vivo, read-out: Vdss
[9] = Half life in BALB/c mice at 10 mg/kg, iv; assay type: ADME, organism-based; design: dose 10 mg/kg, route intravenous; conditions: mouse, in vivo
[10] = Clearance in Sprague-Dawley rat at 1 mg/kg, iv; assay type: ADME, organism-based; design: dose 1 mg/kg, route intravenous; conditions: in vivo
[11] = Bioavailability in rhesus monkey […], po; assay type: ADME, organism-based, Macaca mulatta; conditions: in vivo
[12] = Tmax in Sprague-Dawley rat at 1 mg/kg, iv; assay type: ADME, organism-based; design: dose 1 mg/kg, route intravenous; conditions: in vivo
[13] = Bioavailability in Sprague-Dawley rat at 2 mg/ml, po; assay type: ADME, organism-based; conditions: in vivo
[14] = Volume of distribution in Guinea pig at 2 mg/kg, iv; assay type: ADME, organism-based, Cavia porcellus; design: dose 2 mg/kg, route intravenous; conditions: in vivo, read-out: Vdss
[15] = Half life in Guinea pig at 2 mg/kg, iv; assay type: ADME, organism-based, Cavia porcellus; design: dose 2 mg/kg, route intravenous; conditions: in vivo
[16] = Tmax in Guinea pig at 2 mg/kg, iv; assay type: ADME, organism-based, Cavia porcellus; design: dose 2 mg/kg, route intravenous; conditions: in vivo
[17] = Bioavailability in Dutch Belted rabbit […], po; assay type: ADME, organism-based, Oryctolagus cuniculus; conditions: in vivo
[18] = Clearance in New Zealand White rabbit at 5 mg/kg, iv; assay type: ADME, organism-based, Oryctolagus cuniculus; design: dose 5 mg/kg, route intravenous; conditions: in vivo
[19] = Volume of distribution in New Zealand White rabbit at 5 mg/kg, iv; assay type: ADME, organism-based, Oryctolagus cuniculus; design: dose 5 mg/kg, route intravenous; conditions: in vivo, read-out: Vdss
[20] = Volume of distribution in Beagle dog at 1 mg/kg, iv; assay type: ADME, organism-based, Canis lupus familiaris; design: dose 1 mg/kg, route intravenous; conditions: in vivo, read-out: Vdss
[21] = Bioavailability in Beagle dog […], po; assay type: ADME, organism-based, Canis lupus familiaris; conditions: in vivo

Structure (SMILES): Cc1cc(S(=O)(=O)N[C@@H](C(=O)NO)C2CCOCC2)ccc1F
- IC50 [1]: 0.21 µM
- IC50 [2]: 0.054 µM
- inhibition [3]: < 10%
- inhibition [4]: < 10%
- IC50 [5]: 4.3 µM
- IC50 [6]: 2 µM
- IC50 [7]: 6.5 µM
- Vd [8]: 1 L/kg
- half-life [9]: 24 min
- clearance [10]: 80 mL/min/kg
- bioavailability [11]: 16%
- Tmax [12]: 18 min
- bioavailability [13]: 71%
- Vd [14]: 1.1 L/kg
- half-life [15]: 72 min
- Tmax [16]: 48 min
- bioavailability [17]: 0.5%
- clearance [18]: 35 mL/min/kg
- Vd [19]: 3.8 L/kg
- Vd [20]: 2.4 L/kg
- bioavailability [21]: 57%
